Measured values taken from patent US11072598B2, “Somatostatin modulators and uses thereof” (CRINETICS PHARMACEUTICALS, INC., priority 2017, dated 2021).
Like-named read-outs stand apart in the source and are kept apart here.

Key:
[1] = molecular target: T1, human somatostatin receptor subtype 2 (Homo sapiens, UniProt P30874); assay: cAMP functional assay for SSTR2 agonists; assay type: cell-based
T1 construct: expressed in transfected cells
Procedure, shortened: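 CHO-K1 cells stably expressing human SSTR2 were treated for 20 min at 37 °C with compound plus NKH477 (added as 1.6 μM) in HBSS with IBMX. Intracellular cAMP was measured by HTRF against a standard curve. EC50 values came from concentration-response curves.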

hSSTR4 = molecular target: T2, hSSTR4 (Homo sapiens, UniProt P31391); assay: inhibition of cAMP via hSSTR4; assay type: cell-based; details: for EC50: cAMP inhibition, Table C, read-out: hSST4 (EC50); for hSST4/hSST2 (ratio): selectivity for inhibition of cAMP via hSSTR2 vs. hSSTR4
T2 construct: expressed in transfected cells
Source text: General overview: All five SSTR subtypes are Gi coupled G-protein coupled receptors (GPCRs) that lead to decreases in intracellular cyclic AMP (cAMP) when activated by an agonist. Therefore, measurement of intracellular cAMP levels can be used to assess whether compounds of the invention are agonists of SSTR subtypes (John Kelly, Troy Stevens, W. Joseph Thompson, and Roland Seifert, Current Protocols in Pharmacology, 2005, 2.2.1-2.2). One example of an intracellular cAMP assay is described below. cAMP assay protocol:
Four days prior to the assay, 5,000 Chinese hamster ovary cells (CHO-K1, ATCC #CCL-61) stably expressing the human somatostatin receptor subtype 2 are plated in each well of a 96-well tissue culture-treated plate in Ham's F12 growth media (ThermoFisher #10-080-CM) supplemented with 10% donor bovine serum (Gemini Bio-Products #100-506), 100 U/mL penicillin; 100 ug/mL streptomycin; 2 mM L-glutamine (Gemini Bio-Products #400-110) and 0.2 mg/mL hygromycin B (GoldBio #31282-04-9). The cells are cultured at 37° C., 5% CO2 and 95% humidity. On the day of the assay, the media is aspirated and the cells are treated with 50 μL of 1.6 μM NKH477 (Sigma #N3290) plus various dilutions of compounds of the invention in assay buffer [1× Hank's Balanced Salt Solution (ThermoFisher #SH3058802), 0.5 mM HEPES pH 7.4, 0.1% bovine serum albumin, 0.2 mM 3-Isobutyl-1-methylxanthine (IBMX, VWR #200002-790)]. The cells are incubated for 20 minutes at 37° C. (the final concentration of the compounds of the invention are typically 0-10,000 nM). The cells are treated with 50 μL of lysis buffer (HRTF cAMP kit, Cisbio). The lysate is transferred to 384-well plates and cAMP detection and visualization antibodies are added and incubated for 1-24 hours at room temperature. The time-resolved fluorescent signal is read with a Tecan M1000Pro multiplate reader. The intracellular cAMP concentrations are calculated by regression to a standard curve and are plotted vs. the concentration of the compounds of the invention and the EC50 of the compounds are calculated using standard methods. All data manipluations are in GraphPad Prism v6.

human CYP2D6 isozyme = molecular target: T3, human CYP2D6 isozyme (Homo sapiens, UniProt P10635); assay: CYP2D6 assay (Vivid CYP2D6 Blue Screening Kit); assay type: in vitro ADME; details: CYP450 microsomes, fluorogenic substrate; read-out: CYP2D6 inh.
T3 construct: purchased ThermoFisher Scientific P2972
Method: On the day of the assay, various dilutions of test articles of the invention are prepared in assay buffer (Vivid® CYP2D6 Blue Screening Kit, ThermoFisher Scientific #P2972) and dilutions are added to a preparation of CYP450 microsomes expressing the functional human CYP2D6 isozyme (supplied by the kit) and incubated for 15 minutes at 37° C. to allow interactions between the test article of invention and the enzyme in the absence of enzyme turnover. The enzymatic reaction is initiated by addition of the NADPH co-factor in the precense of the fluorogenic substrate. Under normal conditions, this substrate (which is not fluorescent) is cleaved by active CYP2D6 to produce a a fluorescent product. When in the presence of test article, the lack of appearance of the fluorescent product is evidence of inhibition of the CYP2D6 enzyme by the test article. The enzymatic reaction is allowed to proceed for 30 minutes at […] and then terminated by the addition of 0.5 M Tris pH 10.8. The concentration of fluorescent cleavage product is measured using spectroscopic parameters prescribed in the kit with a Tecan M1000Pro multiplate reader. The percent inhibition is calculated based on the fluorescence intensity observed in the presence of the positive control inhibitor, quinidine (Sigma #Q3625), included in each assay. The percent inhibition is plotted versus test article concentration and an IC50 for CYP2D6 inhibition is calculated using standard methods. All data manipluations are in GraphPad Prism v6.

hERG ion channel = molecular target: T4, hERG ion channel (Homo sapiens, UniProt Q12809); assay: hERG fluorescence polarization assay (Predictor kit); assay type: binding; details: tracer displacement, membrane fractions; read-out: hERG inh.
T4 construct: purchased ThermoFisher Scientific PV5365
Method: On the day of the assay, various dilutions of test articles of the invention are prepared in assay buffer (Predictor™ hERG Fluorescence Polarization Assay Kit, ThermoFisher Scientific #PV5365) and dilutions are added to membranes fractions that contain the functional hERG ion channel (supplied by the kit). […] Under normal conditions, the tracer binds to the hERG channel and the fluorecence polarization measured is high. […] The concentration of free tracer is measured via fluorescence polarization using parameters prescribed in the kit with a Tecan M1000Pro multiplate reader. […] The fluorescence polarization is plotted versus test article concentration and an IC50 for hERG inhibition is calculated using standard methods. All data manipluations are in GraphPad Prism v6.

[2] = cAMP inhibition, Table C, read-out: hSST2 (EC50)
[3] = inhibition of cAMP activities via human SST2 receptor (SSTR2), CHO-K1 cells, read-out: EC50

T1 sequence (P30874 whole entry): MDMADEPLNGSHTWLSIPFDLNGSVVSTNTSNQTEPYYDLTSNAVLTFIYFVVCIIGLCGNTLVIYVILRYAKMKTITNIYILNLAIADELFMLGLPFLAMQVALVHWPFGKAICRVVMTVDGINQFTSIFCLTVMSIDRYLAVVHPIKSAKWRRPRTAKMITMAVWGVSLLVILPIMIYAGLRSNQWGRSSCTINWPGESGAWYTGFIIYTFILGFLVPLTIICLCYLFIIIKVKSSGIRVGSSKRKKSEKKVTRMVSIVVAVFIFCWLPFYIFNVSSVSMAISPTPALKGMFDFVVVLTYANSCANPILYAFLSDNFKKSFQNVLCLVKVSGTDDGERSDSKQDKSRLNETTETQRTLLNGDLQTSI
T2 sequence (P31391 whole entry): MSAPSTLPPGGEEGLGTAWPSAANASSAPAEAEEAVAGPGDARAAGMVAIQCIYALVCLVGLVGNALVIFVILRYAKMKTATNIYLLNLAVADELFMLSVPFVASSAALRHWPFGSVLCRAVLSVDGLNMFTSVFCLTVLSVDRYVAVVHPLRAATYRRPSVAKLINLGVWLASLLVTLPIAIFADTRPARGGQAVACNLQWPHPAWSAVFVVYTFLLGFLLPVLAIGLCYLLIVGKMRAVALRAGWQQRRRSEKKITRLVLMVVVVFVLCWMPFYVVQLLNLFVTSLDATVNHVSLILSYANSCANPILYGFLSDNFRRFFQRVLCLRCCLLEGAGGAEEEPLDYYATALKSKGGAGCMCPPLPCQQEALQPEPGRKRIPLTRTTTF
T3 sequence (P10635 whole entry): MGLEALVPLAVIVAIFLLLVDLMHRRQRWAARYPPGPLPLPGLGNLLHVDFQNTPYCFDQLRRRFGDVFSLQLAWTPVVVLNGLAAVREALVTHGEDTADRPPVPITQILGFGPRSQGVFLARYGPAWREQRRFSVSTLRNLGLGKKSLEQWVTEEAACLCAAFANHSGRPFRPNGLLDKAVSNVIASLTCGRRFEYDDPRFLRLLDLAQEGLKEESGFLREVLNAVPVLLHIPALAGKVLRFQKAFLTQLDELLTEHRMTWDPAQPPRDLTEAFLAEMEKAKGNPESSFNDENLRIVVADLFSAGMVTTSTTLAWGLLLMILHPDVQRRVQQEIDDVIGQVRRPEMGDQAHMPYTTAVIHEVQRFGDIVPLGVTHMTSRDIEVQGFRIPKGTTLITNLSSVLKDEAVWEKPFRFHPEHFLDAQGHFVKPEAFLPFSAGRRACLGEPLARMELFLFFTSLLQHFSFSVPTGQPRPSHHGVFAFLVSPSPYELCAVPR
T4 sequence (Q12809 whole entry): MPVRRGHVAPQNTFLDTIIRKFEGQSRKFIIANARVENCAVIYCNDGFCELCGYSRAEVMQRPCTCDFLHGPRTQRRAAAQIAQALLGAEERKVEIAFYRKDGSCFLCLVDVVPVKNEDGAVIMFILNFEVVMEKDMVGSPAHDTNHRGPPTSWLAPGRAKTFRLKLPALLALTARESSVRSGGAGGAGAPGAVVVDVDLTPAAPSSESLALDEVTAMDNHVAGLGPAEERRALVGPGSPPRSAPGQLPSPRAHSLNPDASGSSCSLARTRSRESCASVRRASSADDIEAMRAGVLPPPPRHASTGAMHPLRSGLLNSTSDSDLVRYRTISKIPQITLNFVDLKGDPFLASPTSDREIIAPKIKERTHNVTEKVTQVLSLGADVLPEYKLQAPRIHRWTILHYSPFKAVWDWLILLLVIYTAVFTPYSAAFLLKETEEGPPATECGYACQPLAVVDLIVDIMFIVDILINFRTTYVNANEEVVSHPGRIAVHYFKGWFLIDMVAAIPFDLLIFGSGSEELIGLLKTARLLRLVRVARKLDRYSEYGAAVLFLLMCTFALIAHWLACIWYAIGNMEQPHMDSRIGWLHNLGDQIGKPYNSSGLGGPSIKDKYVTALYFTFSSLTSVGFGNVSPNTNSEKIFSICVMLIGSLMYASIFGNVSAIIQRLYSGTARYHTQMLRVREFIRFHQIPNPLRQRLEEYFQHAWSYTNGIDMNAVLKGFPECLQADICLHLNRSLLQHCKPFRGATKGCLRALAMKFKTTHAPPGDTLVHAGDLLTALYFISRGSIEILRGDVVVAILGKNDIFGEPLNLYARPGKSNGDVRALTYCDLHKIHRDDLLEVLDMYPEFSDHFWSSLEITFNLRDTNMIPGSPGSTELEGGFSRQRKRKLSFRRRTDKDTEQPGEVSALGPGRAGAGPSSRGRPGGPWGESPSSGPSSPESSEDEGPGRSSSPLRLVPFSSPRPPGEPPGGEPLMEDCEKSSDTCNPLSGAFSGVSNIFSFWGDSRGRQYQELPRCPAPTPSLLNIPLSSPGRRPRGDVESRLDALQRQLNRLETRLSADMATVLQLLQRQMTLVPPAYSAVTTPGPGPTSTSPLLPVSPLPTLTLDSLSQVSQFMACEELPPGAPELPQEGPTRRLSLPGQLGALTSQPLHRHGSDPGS

Row | Compound | EC50 [1, 2] [nM] | EC50 [1, 3] [nM] | EC50 (hSSTR4) [nM] | hSST4/hSST2 (ratio) (hSSTR4) | IC50 (human CYP2D6 isozyme) [nM] | IC50 (hERG ion channel) [nM]
1 | Cc1cc(F)cc(-c2cnc(N)c(-c3nc4cc(Cl)ccc4[nH]3)c2N2CCC(N)CC2)c1 [Compound 1-1, 4-(4-aminopiperidin-1-yl)-3-(5-chloro-1H-1,3-benzodiazol-2-yl)-5-(3-fluoro-5-methylphenyl)pyridin-2-amine] | 0.03 | < 10 | 0.7 | b (between 15 and 50) | > 5000 | > 5000
2 | Cc1cc(F)cc(-c2cnc(N)c(-c3nc4cc(F)cc(F)c4[nH]3)c2N2CCC(N)CC2)c1 [Compound 1-2, 4-(4-aminopiperidin-1-yl)-3-(5,7-difluoro-1H-1,3-benzodiazol-2-yl)-5-(3-fluoro-5-methylphenyl)pyridin-2-amine] | 0.05 | < 10 | 1.3 | b (between 15 and 50) | > 5000 | > 5000
3 | Cc1cc(F)cc(-c2cnc(N)c(-c3nc4cc(F)ccc4[nH]3)c2N2CCC(N)CC2)c1 [Compound 1-6, 4-(4-aminopiperidin-1-yl)-3-(5-fluoro-1H-1,3-benzodiazol-2-yl)-5-(3-fluoro-5-methylphenyl)pyridin-2-amine] | 0.06 | < 10 | 0.92 | b (between 15 and 50) | > 5000 | > 5000
4 | Cc1cc(F)cc(-c2cnc(N)c(-c3nc4cccc(F)c4[nH]3)c2N2CCC(N)CC2)c1 [Compound 1-11, 4-(4-aminopiperidin-1-yl)-3-(7-fluoro-1H-1,3-benzodiazol-2-yl)-5-(3-fluoro-5-methylphenyl)pyridin-2-amine] | 0.27 | < 10 | 0.71 | c (between 2.5 and 15) | > 5000 | > 5000
5 | Cc1cc(F)cc(-c2cnc(N)c(-c3nc4cc(C#N)ccc4[nH]3)c2N2CCC(N)CC2)c1 [Compound 1-12, 2-[2-amino-4-(4-aminopiperidin-1-yl)-5-(3-fluoro-5-methylphenyl)pyridin-3-yl]-1H-1,3-benzodiazole-5-carbonitrile] | 0.06 | < 10 | 14 | a (above 50) | > 5000 | > 5000
6 | CNc1ncc(-c2cc(C)cc(F)c2)c(N2CCC(N)CC2)c1-c1nc2cc(F)cc(F)c2[nH]1 [Compound 1-48, 4-(4-aminopiperidin-1-yl)-3-(5,7-difluoro-1H-1,3-benzodiazol-2-yl)-5-(3-fluoro-5-methylphenyl)-N-methylpyridin-2-amine] | 0.18 | < 10 | 15 | a (above 50) | > 5000 | > 5000
7 | Cc1cc(F)cc(-c2cncc(-c3nc4cc(C#N)ccc4[nH]3)c2N2CCC(N)CC2)c1 [R^1=H, R^5=H, R^6=5-CN, R^7=H, reference compound] | 0.13 | – | 1.2 | c (between 2.5 and 15) | > 5000 | < 5000
8 | Cc1cc(F)cc(-c2cncc(-c3nc4cc(F)ccc4[nH]3)c2N2CCC(N)CC2)c1 [R^1=H, R^5=H, R^6=5-F, R^7=H, reference compound] | – | – | 0.12 | – | < 5000 | –
9 | Cc1cc(F)cc(-c2cncc(-c3nc4cccc(F)c4[nH]3)c2N2CCC(N)CC2)c1 [R^1=H, R^5=H, R^6=H, R^7=7-F, reference compound] | 0.43 | – | 0.09 | e (below 1) | < 5000 | > 5000

Second part, led by results:

Row | EC50 [1, 2] [nM] | EC50 [1, 3] [nM] | EC50 (hSSTR4) [nM] | hSST4/hSST2 (ratio) (hSSTR4) | IC50 (human CYP2D6 isozyme) [nM] | Compound | IC50 (hERG ion channel) [nM]
10 | – | < 10 | – | b (between 15 and 50) | – | COc1cc(F)cc2nc(-c3c(N(C)C)ncc(-c4cc(C)cc(F)c4)c3N3CCC(N)CC3)[nH]c12 [Compound 4-6, 4-(4-aminopiperidin-1-yl)-3-(5-fluoro-7-methoxy-1H-1,3-benzodiazol-2-yl)-5-(3-fluoro-5-methylphenyl)-N,N-dimethylpyridin-2-amine] | –
11 | – | < 10 | – | a (above 50) | – | COc1cc(F)cc2nc(-c3c(N4CC(F)C4)ncc(-c4cc(C)cc(F)c4)c3N3CCC(N)CC3)[nH]c12 [Compound 4-7, 1-[3-(5-fluoro-7-methoxy-1H-1,3-benzodiazol-2-yl)-5-(3-fluoro-5-methylphenyl)-2-(3-fluoroazetidin-1-yl)pyridin-4-yl]piperidin-4-amine] | –
12 | – | < 10 | – | a (above 50) | – | Cc1cc(F)cc(-c2cnc(N3CCOCC3)c(-c3nc4cc(F)cc(F)c4[nH]3)c2N2CCC(N)CC2)c1 [Compound 4-8, 1-[3-(5,7-difluoro-1H-1,3-benzodiazol-2-yl)-5-(3-fluoro-5-methylphenyl)-2-(morpholin-4-yl)pyridin-4-yl]piperidin-4-amine] | –
